Source: ChEMBL document CHEMBL5532635, “The role of natural anti-parasitic guided development of synthetic drugs for leishmaniasis” (Eur J Med Chem, 2023)
pEC50, pIC50: −log10 of the molar value. In brackets after ≈: the same amount, converted by molar mass.

Experiments:
Type in all cases: functional, organism-based
Leishmania major [1] = assay: Antileishmanial activity against Leishmania major promastigotes assessed as reduction in parasite growth incubated for 72 hrs by MTT assay
Leishmania major [2] = assay: Antileishmanial activity against Leishmania major amastigotes assessed as reduction in parasite growth incubated for 72 hrs by MTT assay
Leishmania amazonensis [3] = assay: Antileishmanial activity against Leishmania amazonensis promastigotes infected in BALB/c mouse assessed as reduction of IgG1 level at 400 mg/kg per day, ip administered for 30 days measured at 10 week by ELISA assay
Leishmania amazonensis [4] = assay: Antileishmanial activity against Leishmania amazonensis promastigotes assessed as reduction in parasite viability after 72 hrs by CCK-8 assay
Leishmania amazonensis [5] = assay: Antileishmanial activity against Leishmania amazonensis amastigotes assessed as reduction in parasite growth
Leishmania donovani [6] = assay: Antileishmanial activity against Leishmania donovani promastigotes assessed as reduction in parasite growth
Leishmania infantum [7] = assay: Antileishmanial activity Leishmania infantum promastigotes assessed as reduction in parasite growth incubated for 72 hrs by alamar blue assay
Leishmania infantum [8] = assay: Antileishmanial activity against Leishmania infantum assessed as reduction in parasite growth
Leishmania infantum [9] = assay: Antileishmanial activity against Leishmania infantum promastigotes assessed as reduction in parasite viability measured after 48 hrs by MTT assay
Leishmania mexicana = assay: Antileishmanial activity against Leishmania mexicana intracellular amastigotes infected in J774 macrophages assessed as reduction in parasite viability after 72 hrs by MTT based analysis; details: J774, 72 h
Leishmania donovani [10] = assay: Antileishmanial activity against Leishmania donovani promastigotes assessed as inhibition of parasite growth incubated for 4 hrs by MTT assay
Leishmania infantum [11] = assay: Antileishmanial activity against Leishmania infantum promastigote assessed as reduction in parasite growth after 72 hrs by MTT assay
Leishmania tropica = assay: Antileishmanial activity against Leishmania tropica promastigotes assessed as inhibition of parasite growth
Leishmania donovani [12] = assay: Antileishmanial activity against Leishmania donovani BHU575 promastigotes assessed as cell viability by MTT assay

COc1c2c(cc3c1-c1ccc(OC)c(=O)cc1[C@@H](NC(C)=O)CC3)OCO2
IC50 (Leishmania major [1]): 0.4 µg/mL (≈ 1.04 µM)
IC50 (Leishmania major [2]): 8.7 µg/mL (≈ 22.7 µM)

CC[C@H]1CN2CCc3c([nH]c4ccccc34)[C@@H]2C[C@@H]1/C(=C\OC)C(=O)OC
pIC50 (Leishmania amazonensis [3]): 5.78

C=C[C@H]1CN2CCc3c([nH]c4ccccc34)[C@@H]2C[C@@H]1/C(=C\OC)C(=O)OC
pIC50 (Leishmania amazonensis [3]): 5.95

CO[C@@H]1C(=O)C[C@H]2O[C@]1(C)n1c3ccccc3c3c4c(c5c6ccccc6n2c5c31)C(=O)NC4
pIC50 (Leishmania amazonensis [4]): 7.43
pIC50 (Leishmania amazonensis [5]): 8.30
pIC50 (Leishmania donovani [6]): < 7.05

C/C(=C\COc1cc(O)cc2oc(=O)ccc12)C/C=C/C(C)(C)OO
pEC50 (Leishmania infantum [7]): 4.69

Cc1cc(O)c(C(=O)Nc2ccccc2)c(=O)n1Cc1ccc(Cl)cc1
pIC50 (Leishmania infantum [8]): 4.26

Cc1cc(O)c(C(=O)Nc2ccccc2)c(=O)n1Cc1ccc(F)cc1
pIC50 (Leishmania infantum [8]): 4.26

CCCn1c(C)cc(O)c(C(=O)Nc2ccc(Br)cc2)c1=O
pIC50 (Leishmania infantum [8]): 4.26

COc1c(O[C@@H]2O[C@H](CO)[C@@H](O)[C@H](O)[C@H]2O)cc2c(c1OC)-c1ccc(OC)c(=O)cc1[C@@H](NC(C)=O)CC2
IC50 (Leishmania major [1]): 0.2 µg/mL (≈ 0.365 µM)
IC50 (Leishmania major [2]): 4 µg/mL (≈ 7.31 µM)

Cc1cc(O)c(C(=O)Nc2ccc(Br)cc2)c(=O)n1C1CC1
pIC50 (Leishmania infantum [8]): 4.26

Cc1cc(O)c(C(=O)Nc2ccccc2)c(=O)n1Cc1cccc(Cl)c1Cl
pIC50 (Leishmania infantum [8]): 4.26

COC1=C(C)O[C@H]2C[C@@]1(OC)n1c3ccccc3c3c4c(c5c6ccccc6n2c5c31)C(=O)NC4
pIC50 (Leishmania amazonensis [4]): 7.65
pIC50 (Leishmania donovani [6]): < 7.05

CCOC(=O)c1cc2c([nH]c3ccccc32)c(-c2ccccn2)n1
pEC50 (Leishmania infantum [9]): 5.47

CCOC(=O)c1cc2c([nH]c3ccccc32)c(-c2cn(-c3ccccc3)nn2)n1
pEC50 (Leishmania infantum [9]): 4.87

COc1cc2oc(=O)ccc2c(OC/C=C(\C)C/C=C/C(C)(C)OO)c1OC
pEC50 (Leishmania infantum [7]): 4.58

COc1cc(/C=C/C(=O)c2ccc([N+](=O)[O-])cc2)ccc1OCC=C(C)C
pIC50 (Leishmania mexicana): 5.09

CCOC(=O)c1cc2c([nH]c3ccccc32)c(-c2cc3ccccc3n3nnnc23)n1
pEC50 (Leishmania infantum [9]): 4.99

O=c1c2ccccc2nc(/C=C/c2ccc([N+](=O)[O-])cc2)n1-c1ccccc1
pIC50 (Leishmania donovani [10]): 7.68

COc1ccc(Cn2c(C)cc(O)c(C(=O)Nc3ccc(C)cc3)c2=O)cc1
pIC50 (Leishmania infantum [8]): 4.26

C=C[C@@H](c1cc(CC=C(C)C)ccc1O)c1cc(CC=C(C)C)c(OC)cc1O
pIC50 (Leishmania infantum [11]): 5.28
pIC50 (Leishmania amazonensis [4]): 5.35
pIC50 (Leishmania amazonensis [5]): 5.95

COc1cc(/C=C/C(=O)c2cccc([N+](=O)[O-])c2)ccc1OCC=C(C)C
pIC50 (Leishmania mexicana): 5.34

COc1cc2c(c(OC)c1OC)-c1ccc(OC)c(=O)cc1[C@@H](NC=O)CC2
IC50 (Leishmania major [2]): 10.2 µg/mL (≈ 26.5 µM)

COc1cc2c(c(OC)c1O)-c1ccc(OC)c(=O)cc1[C@@H](NC(C)=O)CC2 [2-DESMETHYLCOLCHICIN]
IC50 (Leishmania major [1]): 0.5 µg/mL (≈ 1.3 µM)
IC50 (Leishmania major [2]): 10.2 µg/mL (≈ 26.5 µM)

C[C@@H]1[C@H](O)[C@@H](C)/C=C/C=C/C=C/C=C/C=C/C=C/C=C/[C@H](O[C@@H]2O[C@H](C)[C@@H](O)[C@H](N)[C@@H]2O)C[C@@H]2O[C@](O)(C[C@@H](O)C[C@@H](O)[C@H](O)CC[C@@H](O)C[C@@H](O)CC(=O)O[C@H]1C)C[C@H](O)[C@H]2C(=O)O [AMPHOTERICIN B]
pIC50 (Leishmania donovani [10]): 7.34

CC1=CCC[C@H]2[C@](C)(CC3=CC(=O)C=CC3=O)[C@@H](C)CC[C@]12C [AVARONE]
pIC50 (Leishmania tropica): 4.69
pIC50 (Leishmania donovani [12]): 4.55

COc1cc2c(c(OC)c1OC)-c1ccc(OC)c(=O)cc1[C@@H](NC(C)=O)CC2 [COLCHICINE]
IC50 (Leishmania major [1]): 0.5 µg/mL (≈ 1.25 µM)
IC50 (Leishmania major [2]): 10.2 µg/mL (≈ 25.5 µM)

COc1cc2c(c(OC)c1OC)-c1ccc(OC)c(=O)cc1[C@@H](NC(=O)CO)CC2 [COLCHIFOLINE]
IC50 (Leishmania major [1]): 0.7 µg/mL (≈ 1.68 µM)
IC50 (Leishmania major [2]): 14 µg/mL (≈ 33.7 µM)

CC[C@@H]1CN2CCc3c([nH]c4ccccc34)[C@@H]2C[C@@H]1/C(=C\OC)C(=O)OC [CORYNANRHEIDINE]
pIC50 (Leishmania amazonensis [3]): 5.55

CN[C@H]1CCc2cc(OC)c(OC)c(OC)c2-c2ccc(OC)c(=O)cc21 [DEMECOLCINE]
IC50 (Leishmania major [1]): 0.7 µg/mL (≈ 1.88 µM)
IC50 (Leishmania major [2]): 14.8 µg/mL (≈ 39.8 µM)

CCCCCCCCCCCCCCCCOP(=O)([O-])OCC[N+](C)(C)C [MILTEFOSINE]
pIC50 (Leishmania donovani [10]): 5.50

COc1cc2ccc(=O)oc2cc1OC [SCOPARONE]
pEC50 (Leishmania infantum [7]): 5.28
